# From patent US20250082592A1, “PHARMACEUTICAL COMPOSITION FOR PREVENTION, ALLEVIATION OR TREATMENT OF SARCOPENIA, CONTAINING ROR-alpha ACTIVATOR JC1-40” (SEOUL NATIONAL UNIVERSITY R & DB FOUNDATION, priority 2021, published 2025)
# Columns and labels:
# TFAM promoter = TFAM promoter transcriptional activity, human TFAM-Luc reporter luciferase assay in C2C12 cells; assay type: cell-based; conditions: JC1-40 20 μM, 24 hours
# Method: C2C12 cells (1×10^5 cells/well) were seeded in a 12-well culture plate and cultured overnight in DMEM containing 10% FBS. The C2C12 cells were maintained at 37° C. in a humidified incubator with 5% CO2 and 95% air. After 24 hours of cultivation, human TFAM-Luc reporter (100 ng) was transfected into C2C12 cells using PolyFect (QIAGEN). After 24 hours post-transfection, the medium was changed to DMEM differentiation medium containing 2% horse serum, and treated with JC1-40 (20 μM) and solvent (control group). 24 hours later, cell lysates were obtained and luciferase activity was analyzed and determined using an analytical luminescence luminometer.
# C2C12 cells [1] = experiment: Protein expression of NRF1 and TFAM, Western blotting; assay type: cell-based; conditions: JC1-40 20 μM
# Method: Using a method identical to the above, after treating C2C12 cells with the compound JC1-40, the expression of the mitochondrial biosynthesis regulators, NRF1 and TFAM proteins, was analyzed by Western blotting. Specific antibodies for NRF1 (Santa Cruz Biotechnology), TFAM (Santa Cruz Biotechnology), and α-tubulin (Millipore) were also used.
# [2] = test system: male C57BL/6 mice, high-fat diet; experiment: High-fat diet-induced animal model, gastrocnemius tissue immunofluorescence; assay type: in vivo; conditions: JC1-40 5 mg/kg orally once a day for 5 weeks
# Method: To confirm the correlation between the administration of JC1-40, an increase in mitochondrial biosynthesis, and the suppression of sarcopenia, experiments were conducted using a diet-induced animal model. Specifically, male C57BL/6 mice aged 5 weeks were acclimatized in a temperature and humidity-controlled environment for one week and were provided with a high-fat diet (fats derived from lard and soybean oil, 60 kcal % included, Research diets) for 12 weeks. From the 8th week of the diet, JC1-40 was orally administered once a day for 5 weeks at a concentration of 5 mg/kg (FIG. 6A). In detail, an amount of JC1-40 corresponding to the final concentration was measured and added to sterile water containing 0.5% carboxymethyl cellulose, and then uniformly suspended using a mortar and pestle to produce the drug. The dose for each mouse subject was taken and orally administered using a Sonde. The control group was administered sterile water containing 0.5% carboxymethyl cellulose in the same manner. After 12 weeks of diet were completed, the mice were anesthetized, the gastrocnemius tissue was extracted, and it was fixed using a 4% paraformaldehyde solution. The fixed tissue underwent washing, decalcification, and dehydration, and was ultimately made into a paraffin block using paraffin. The created paraffin block was cut into sections with a thickness of 3 μm, and after creating sections, protein expression was confirmed with fluorescence using specific antibodies for COX4 (Cytochrome c oxidase subunit 4, Santa Cruz Biotechnology) and TFAM (Mitochondrial transcription factor A, Santa Cruz Biotechnology).
# C2C12 cells [3] = experiment: Mitochondrial membrane potential, TMRM staining of C2C12 myotubes; assay type: cell-based; conditions: JC1-40 20 μM, 48 hours in differentiation medium, vs solvent control
# Method: C2C12 cells (2×10^5 cells/well) were seeded in a 12-well culture plate and cultivated in DMEM (Dulbecco's modified Eagle's medium) medium containing 10% FBS (fetal bovine serum). The C2C12 cells were maintained at 37° C. in a humidified incubator with 5% CO2 and 95% air. After 48 hours of cultivation, the medium was changed to DMEM (Dulbecco's modified Eagle's medium) differentiation medium containing 2% horse serum, and the cells were treated with JC1-40 (20 μM) and solvent (control group). 48 hours after changing the differentiation medium, the mitochondria of the C2C12 cells were stained with Tetramethylrhodamine, Methyl Ester, and Perchlorate (TMRM) 600 nM. After 20 minutes, the medium was replaced with new medium containing TMRM 150 nM, and red fluorescence was observed after 10 minutes.
# HeLa cells = experiment: Mitochondrial quantity, MitoTracker Green staining of HeLa cells; assay type: cell-based; conditions: JC1-40 5 μM and 50 μM, 24 hours, vs solvent control
# Method: HeLa cells (4×10^4 cells/well) were seeded in a 12-well culture plate and cultivated overnight in DMEM (Dulbecco's modified Eagle's medium) medium containing 10% FBS (fetal bovine serum). The HeLa cells were maintained at 37° C. in a humidified incubator with 5% CO2 and 95% air. After 24 hours of cultivation, the medium was replaced and JC1-40 (5 μM, 50 μM), and solvent (control group) were treated for 24 hours.
# C2C12 cells [4] = experiment: mRNA expression of mitochondrial constituent genes (SDHA, COX5A, MCAD), real-time PCR; assay type: cell-based; conditions: JC1-40 20 μM, 48 hours
# Method: C2C12 cells (8×10^5 cells/dish) were seeded in a 60 mm dish and cultured in DMEM (Dulbecco's modified Eagle's medium) medium containing 10% FBS (fetal bovine serum). C2C12 cells were maintained at 37° C. in a humidified incubator with 5% CO2 and 95% air. After 48 hours of cultivation, the medium was changed to DMEM differentiation medium containing 2% horse serum, and the cells were treated with JC1-40 (20 μM) and solvent (control group). After 48 hours from the replacement of the differentiation medium, RNA was extracted. For extraction, the cells were dissolved with EASY BLUE (Intron, Korea), and isopropanol fractionation and ethanol precipitation were utilized. cDNA was synthesized from each RNA sample, and oligomers amplifying the cDNA of specific genes were utilized, monitoring the expression of R-actin as a control group. More specifically, an mRNA-M-MLV mixture was prepared using M-MLV reverse transcriptase (Invitrogen), and reverse transcription polymerase chain reaction was conducted using a thermal cycler. Subsequently, real-time polymerase chain reaction was performed using the ABI StepOnePlus Real-Time PCR system (Applied Biosystems).
# RORα = molecular target: T1, RORα (Mus musculus, UniProt P51448); experiment: RORα dependency of TFAM expression, si-RORα transfection in C2C12 cells; assay type: cell-based; conditions: JC1-40 20 μM, 48 hours
# T1 construct: endogenous in cells; host or cells: C2C12 cells
# T1 sequence (P51448 1-523): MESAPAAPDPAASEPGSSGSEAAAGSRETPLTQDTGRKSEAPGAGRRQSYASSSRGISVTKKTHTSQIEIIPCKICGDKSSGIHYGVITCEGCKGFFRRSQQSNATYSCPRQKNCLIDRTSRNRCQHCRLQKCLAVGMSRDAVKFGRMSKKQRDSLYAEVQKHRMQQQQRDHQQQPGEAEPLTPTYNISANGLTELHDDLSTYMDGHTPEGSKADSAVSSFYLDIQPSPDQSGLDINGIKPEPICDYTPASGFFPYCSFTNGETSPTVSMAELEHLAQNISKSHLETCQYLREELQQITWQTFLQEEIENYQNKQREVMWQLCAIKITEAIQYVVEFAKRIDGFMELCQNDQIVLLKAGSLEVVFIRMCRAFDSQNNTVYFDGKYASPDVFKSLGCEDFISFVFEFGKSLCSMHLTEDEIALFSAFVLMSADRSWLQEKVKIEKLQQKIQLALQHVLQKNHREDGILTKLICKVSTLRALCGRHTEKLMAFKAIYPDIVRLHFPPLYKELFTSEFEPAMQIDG
# Method: C2C12 cells (8×10^5 cells/dish) were seeded in a 60 mm dish and cultured overnight in DMEM (Dulbecco's modified Eagle's medium) containing 10% FBS (fetal bovine serum). The C2C12 cells were maintained at 37° C. in a humidified incubator with 5% CO2 and 95% air. After 24 hours of cultivation, si-RORα (250 pmoles) and si-GL3 (control group) were transfected into C2C12 cells using Lipofectamine 2000 (Thermo Fisher Scientific). After 24 hours post-transfection, the medium was switched to DMEM differentiation medium containing 2% horse serum, and treated with JC1-40 (20 μM) for 48 hours. The methods for RNA and protein extraction were as previously mentioned.
# C2C12 cells [5] = experiment: mRNA expression of mitochondrial biosynthesis regulators (PGC-1α, NRF-1, NRF-2α, TFAM), real-time PCR; assay type: cell-based; conditions: JC1-40 20 μM, 48 hours
# Method: C2C12 cells (8×10^5 cells/dish) were seeded in a 60 mm dish and cultured in DMEM (Dulbecco's modified Eagle's medium) containing 10% FBS (fetal bovine serum). The C2C12 cells were maintained at 37° C. in a humidified incubator with 5% CO2 and 95% air. After 48 hours of cultivation, the medium was changed to DMEM differentiation medium containing 2% horse serum, and treated with JC1-40 (20 μM) and solvent (control group). 48 hours after changing to the differentiation medium, RNA was extracted. The RNA extraction method is as described in Example 3. The results of the mRNA expression of mitochondrial biosynthesis regulators PGC-1α(Peroxisome proliferator-activated receptor gamma coactivator 1-alpha), NRF-1 (Nuclear Respiratory Factor 1), NRF-2a (Nuclear Respiratory Factor 2 alpha), and TFAM (Mitochondrial transcription factor A) induced by JC1-40 are shown in FIG. 4A.
smiles,measurement,setting,value
"CNC(=S)NCc1ccc(OCc2ccccc2)cc1 [JC1-40, 1-methyl-3-[(4-phenylmethoxyphenyl)methyl]thiourea]",transcriptional activity of the TFAM promoter (luciferase activity),TFAM promoter,confirmed to be due to the transcriptional activity of the TFAM promoter
same,protein expression of NRF-1,C2C12 cells [1],increased
same,protein expression of TFAM,C2C12 cells [1],increased
same,protein expression of COX4 in gastrocnemius tissue,[2],significantly increased
same,protein expression of TFAM in gastrocnemius tissue,[2],significantly increased
same,sarcopenia induced by the high-fat diet,[2],significantly improved
same,"red fluorescence (TMRM), mitochondrial membrane potential",C2C12 cells [3],increased
same,"green fluorescence (MitoTracker Green), quantity of mitochondria",HeLa cells,increased in a concentration-dependent manner
same,mRNA expression of COX5A,C2C12 cells [4],increased
same,mRNA expression of MCAD,C2C12 cells [4],increased
same,mRNA expression of SDHA,C2C12 cells [4],increased
same,increase in TFAM expression with si-RORα,RORα; C2C12 cells transfected with si-RORα (250 pmoles),did not occur
same,protein expression of TFAM,"RORα; C2C12 cells, si-GL3 control",increased
same,mRNA expression of NRF-1,C2C12 cells [5],increased
same,mRNA expression of NRF-2,C2C12 cells [5],increased
same,mRNA expression of PGC-1α,C2C12 cells [5],increased
same,mRNA expression of TFAM,C2C12 cells [5],increased
